# In patent US10472352B2, “Rac inhibitors” (Geneyus LLC, priority 2017, dated 2019):
# Key:
# [1] = target: His-Rac1 / GST-PBD (PAK Binding Domain) (Homo sapiens, UniProt P63000); test: Rac Activation AlphaScreen Assay (Rac1 AS); format: biochemical; settings: 500 nM GTPγS, 37° C., 1 hour; 'positive' = signal generated was higher than the positive control
# Procedure: AlphaScreen® assays were performed in 96-well microplates in a final reaction volume of 60 μl. Recombinant His-Rac1, recombinant GST-PBD (PAK Binding Domain), donor and acceptor beads (PerkinElmer), and inhibitors were incubated in exchange buffer (20 mM Tris pH 7.5, 50 mM NaCl, 1 mM MgCl2, 1 mM EDTA, 500 nM GTPγS (guanosine 5′-[γ-thio]triphosphate)) at 37° C. Readings were performed on a Tecan M1000 pro microplate reader after 1 hour.
# Rac1 protein = target: T1, Rac1 protein (Homo sapiens, UniProt P63000); test: Fluorescence Polarization Assay (Rac1 FP); format: binding; settings: 125 nM his-tagged Rac1, 12.5 nM Bodipy-TR GTPγS, 30 minutes at 37° C.
# T1 construct: purchased Cytoskeleton Inc. RC01
# Procedure: Direct binding of Rac1 compound inhibitors to Rac1 protein was performed using fluorescence polarization (FP). Briefly, Rac1 inhibitors were initially dissolved in DMSO and then serial drug dilutions in exchange buffer (20 mM Tris pH 7.5, 50 mM NaCl, 1 mM MgCl, 1 mM EDTA) were prepared in a flat black 96-well half-area plate (Greiner). Recombinant his-tagged Rac1 protein (Cytoskeleton Inc. Cat. # RC01) was added to the inhibitors at a final concentration of 125 nM along with 12.5 nM Bodipy-TR GTPγS (Life Technologies Inc. Cat. # G35780) in exchange buffer and incubated for 30 minutes at 37° C. in exchange buffer. After 30 minutes of incubation. FP was measured on the M1000 Pro (Tecan) fluorescent plate reader with 590 nm±5 nm excitation and 625 nm±5 nm emission spectra settings.
# [2] = tested on: MCF-7 human breast cancer cell line; test: Cell Viability Assay (MCF7), PrestoBlue; format: cell-based; settings: MCF7, 72 h, MCF-7 cells, three days after drug treatment
# Procedure: In order to determine a compound's effect on cell viability, PrestoBlue assays were performed as previously described by Kuhn et al. (2013) with modifications. MCF-7 human breast cancer and IGR-1 human melanoma cell lines were seeded into 96-well plates 24 hours prior to addition of drug. Cells were treated with 0 to 200 μM (11 concentrations) of compound solubilized in DMSO, adjusting the final concentration of DMSO to 1% in the well. Three days after drug treatment, cell viability was measured by adding PrestoBlue (Life Technologies Ltd.; cat. No. A13262) reagent directly to wells containing media/drug to reach a final concentration of 10%. PrestoBlue is a modified molecule of the common Alamar Blue probe used to determine viability based on the ability of a cell to metabolize a nonfluorescent compound (resazurin) to a florescent molecule (resorufin). Following a 1 hour incubation period, total well fluorescence was measured using the microplate reader M1000 pro (Tecan) with excitation 560-5 nm and emission 590-5 nm. […] The percentage of living cells was then computed by comparison with control wells. Kuhn, Jonas et al., Assay and Drug Development Technologies, March 2013, Label-Free Cytotoxicity Screening Assay by Digital Holographic Microscopy.
# [3] = tested on: estrogen receptor response gene (SDF) in MCF7 breast cancer cells; test: Inhibition of Estrogen Receptor Target Gene Transcription (SDF qPCR); format: cell-based; settings: MCF7, 10 nM estradiol, 4 hours; 1 uM fulvestrant; 5 or 10 uM 0032661
# Procedure: After 4 hours, RNA was harvested and converted into cDNA. qPCR analysis for SDF was performed on all samples and normalized to expression of GAPDH. The data, shown in FIG. 7, is expressed as fold change relative to SDF expression of the cFBS sample.
# [4] = tested on: BT474 breast cancer cells; test: BT474 Four (4) Day Cell Viability Assay; format: cell-based; settings: BT474, 4 days, 32661 0 μM
# Procedure: BT474 breast cancer cells that are Estrogen Receptor Positive and HER2+ were grown in 5% cFBS. 5,000 cells were seeded into each well of a 96-well plate and treated with escalating doses of lapatinib, fulvestrant, and 32661.
# [5] = tested on: estrogen receptor response genes Cyclin D1 and pS2 in MCF7 breast cancer cells; test: Inhibition of Estrogen Receptor Target Gene Protein Expression (immunoblot); format: cell-based; settings: MCF7, 10 nM E2, 18 hours; 1 uM fulvestrant; 5 or 10 uM 0032661
# Procedure: After 18 hours, protein was harvested. SDS-PAGE followed by immunoblotting of samples was performed using standard techniques. Protein lysates were immunoblotted for Estrogen Receptor (ER), Cyclin D1, pS2, and Actin.
# [6] = tested on: PSA in LNCaP prostate cancer cells; test: Inhibition of Increased Protein Levels of PSA (immunoblot); format: cell-based; settings: 10 nM DHT, 18 hours, 5 uM enzalutamide, 10, 15 or 20 uM 0032661
# Procedure: After 18 hours protein was harvested. SDS-PAGE followed by immunoblotting of samples was performed using standard techniques. Protein lysates were immunoblotted for the Androgen Receptor (AR), PSA, and Actin.
smiles,measurement,setting,value
"O=C1COCCN1c1cccc(NCCCCCCSc2ccnc3cc(C(F)(F)F)ccc23)c1 [Compound 0033306, 4-(3-{(6-{[7-(trifluoromethyl)quinolin-4-yl]sulfanyl)hexyl}amino]phenyl} morpholin-3-one]",IC50,[1],8.2 µM
same,IC50,Rac1 protein,1.54 µM
same,IC50,[2],3.58 µM
"C[C@]12CC[C@@H]3c4ccc(O)cc4C[C@@H](CCCCCCCCC[S+]([O-])CCCC(F)(F)C(F)(F)F)[C@H]3[C@@H]1CC[C@@H]2O (some centres unmarked) [Fulvestrant, fulvestrant, reference compound]",estrogen receptor target gene transcription (SDF),[3],inhibit the estrogen receptor target gene transcription
same,cellular viability,"[4]; fulvestrant 6.9 nM, lapatinib 0.0 nM",94%
same,cellular viability,"[4]; fulvestrant 6.9 nM, lapatinib 6.9 nM",96%
same,cellular viability,"[4]; fulvestrant 6.9 nM, lapatinib 20.6 nM",96%
same,cellular viability,"[4]; fulvestrant 6.9 nM, lapatinib 61.7 nM",87%
same,cellular viability,"[4]; fulvestrant 6.9 nM, lapatinib 185.2 nM",85%
same,cellular viability,"[4]; fulvestrant 6.9 nM, lapatinib 555.6 nM",79%
same,cellular viability,"[4]; fulvestrant 6.9 nM, lapatinib 1666.7 nM",69%
same,cellular viability,"[4]; fulvestrant 6.9 nM, lapatinib 3333.0 nM",51%
same,cellular viability,"[4]; fulvestrant 20.6 nM, lapatinib 0.0 nM",94%
same,cellular viability,"[4]; fulvestrant 20.6 nM, lapatinib 6.9 nM",88%
same,cellular viability,"[4]; fulvestrant 20.6 nM, lapatinib 20.6 nM",88%
same,cellular viability,"[4]; fulvestrant 20.6 nM, lapatinib 61.7 nM",83%
same,cellular viability,"[4]; fulvestrant 20.6 nM, lapatinib 185.2 nM",82%
same,cellular viability,"[4]; fulvestrant 20.6 nM, lapatinib 555.6 nM",78%
same,cellular viability,"[4]; fulvestrant 20.6 nM, lapatinib 1666.7 nM",63%
same,cellular viability,"[4]; fulvestrant 20.6 nM, lapatinib 3333.0 nM",47%
same,cellular viability,"[4]; fulvestrant 61.7 nM, lapatinib 0.0 nM",91%
same,cellular viability,"[4]; fulvestrant 61.7 nM, lapatinib 6.9 nM",89%
same,cellular viability,"[4]; fulvestrant 61.7 nM, lapatinib 20.6 nM",89%
same,cellular viability,"[4]; fulvestrant 61.7 nM, lapatinib 61.7 nM",90%
same,cellular viability,"[4]; fulvestrant 61.7 nM, lapatinib 185.2 nM",88%
same,cellular viability,"[4]; fulvestrant 61.7 nM, lapatinib 555.6 nM",77%
same,cellular viability,"[4]; fulvestrant 61.7 nM, lapatinib 1666.7 nM",66%
same,cellular viability,"[4]; fulvestrant 61.7 nM, lapatinib 3333.0 nM",34%
same,cellular viability,"[4]; fulvestrant 185.2 nM, lapatinib 0.0 nM",94%
same,cellular viability,"[4]; fulvestrant 185.2 nM, lapatinib 6.9 nM",91%
same,cellular viability,"[4]; fulvestrant 185.2 nM, lapatinib 20.6 nM",91%
same,cellular viability,"[4]; fulvestrant 185.2 nM, lapatinib 61.7 nM",91%
same,cellular viability,"[4]; fulvestrant 185.2 nM, lapatinib 185.2 nM",88%
same,cellular viability,"[4]; fulvestrant 185.2 nM, lapatinib 555.6 nM",74%
same,cellular viability,"[4]; fulvestrant 185.2 nM, lapatinib 1666.7 nM",63%
same,cellular viability,"[4]; fulvestrant 185.2 nM, lapatinib 3333.0 nM",36%
same,cellular viability,"[4]; fulvestrant 555.6 nM, lapatinib 0.0 nM",87%
same,cellular viability,"[4]; fulvestrant 555.6 nM, lapatinib 6.9 nM",90%
same,cellular viability,"[4]; fulvestrant 555.6 nM, lapatinib 20.6 nM",90%
same,cellular viability,"[4]; fulvestrant 555.6 nM, lapatinib 61.7 nM",88%
same,cellular viability,"[4]; fulvestrant 555.6 nM, lapatinib 185.2 nM",82%
same,cellular viability,"[4]; fulvestrant 555.6 nM, lapatinib 555.6 nM",74%
same,cellular viability,"[4]; fulvestrant 555.6 nM, lapatinib 1666.7 nM",58%
same,cellular viability,"[4]; fulvestrant 555.6 nM, lapatinib 3333.0 nM",26%
same,cellular viability,"[4]; fulvestrant 1666.7 nM, lapatinib 0.0 nM",80%
same,cellular viability,"[4]; fulvestrant 1666.7 nM, lapatinib 6.9 nM",79%
same,cellular viability,"[4]; fulvestrant 1666.7 nM, lapatinib 20.6 nM",76%
same,cellular viability,"[4]; fulvestrant 1666.7 nM, lapatinib 61.7 nM",75%
same,cellular viability,"[4]; fulvestrant 1666.7 nM, lapatinib 185.2 nM",68%
same,cellular viability,"[4]; fulvestrant 1666.7 nM, lapatinib 555.6 nM",65%
same,cellular viability,"[4]; fulvestrant 1666.7 nM, lapatinib 1666.7 nM",47%
same,cellular viability,"[4]; fulvestrant 1666.7 nM, lapatinib 3333.0 nM",15%
same,cellular viability,"[4]; fulvestrant 3333.0 nM, lapatinib 0.0 nM",60%
same,cellular viability,"[4]; fulvestrant 3333.0 nM, lapatinib 6.9 nM",53%
same,cellular viability,"[4]; fulvestrant 3333.0 nM, lapatinib 20.6 nM",53%
same,cellular viability,"[4]; fulvestrant 3333.0 nM, lapatinib 61.7 nM",26%
same,cellular viability,"[4]; fulvestrant 3333.0 nM, lapatinib 185.2 nM",24%
same,cellular viability,"[4]; fulvestrant 3333.0 nM, lapatinib 555.6 nM",32%
same,cellular viability,"[4]; fulvestrant 3333.0 nM, lapatinib 1666.7 nM",20%
same,cellular viability,"[4]; fulvestrant 3333.0 nM, lapatinib 3333.0 nM",4%
same,"protein levels of estrogen receptor target genes (Cyclin D1, pS2)",[5],inhibit the increase in protein levels of estrogen receptor target genes
"CNC(=O)c1ccc(N2C(=S)N(c3ccc(C#N)c(C(F)(F)F)c3)C(=O)C2(C)C)cc1F [enzalutamide, reference compound]",increase in protein levels of PSA,[6],inhibit the increase in protein levels of PSA
